Series [1] addresses Substance-P receptor (Rattus norvegicus, UniProt P14600). Put plainly: Displacement of [3H]substance P from rat NK1 receptor expressed in CHO cell membranes. Details: species or system Membrane. For orientation: Displacement assays read how much labelled ligand stays bound in the presence of the test substance.
Series [2] has as its target T1, Delta-type opioid receptor (Homo sapiens, UniProt P41143). Kind of series: Displacement of [3H]DPDPE from human delta opioid receptor expressed in HN9.10 cells. It counts as cell-based.
For series [3], the target named is T2, Mu-type opioid receptor (Rattus norvegicus, UniProt P33535). Kind of series: Displacement of [3H]DAMGO from rat mu opioid receptor expressed in HN9.10 cells. It counts as cell-based.
T2 sequence (P33535 whole entry): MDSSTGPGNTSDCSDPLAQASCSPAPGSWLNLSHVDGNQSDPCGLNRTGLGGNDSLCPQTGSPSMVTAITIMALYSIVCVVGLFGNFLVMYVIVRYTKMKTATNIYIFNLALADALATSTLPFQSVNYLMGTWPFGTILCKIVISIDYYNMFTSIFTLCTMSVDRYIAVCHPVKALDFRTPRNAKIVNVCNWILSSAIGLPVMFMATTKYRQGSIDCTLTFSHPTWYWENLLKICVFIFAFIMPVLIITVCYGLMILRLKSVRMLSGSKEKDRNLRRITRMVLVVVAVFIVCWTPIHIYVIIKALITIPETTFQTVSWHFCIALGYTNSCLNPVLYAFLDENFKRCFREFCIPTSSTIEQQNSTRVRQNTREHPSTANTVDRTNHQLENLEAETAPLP
Series [4] concerns the target Mu-type opioid receptor (Cavia porcellus, UniProt P97266). Kind of series: Agonist activity at mu opioid receptor in guinea pig ileum assessed as inhibition of electrically-stimulated contraction. It counts as functional, tissue-based.
In series [5] the target is Delta-type opioid receptor (Mus musculus, UniProt P32300). Put plainly: Agonist activity at delta opioid receptor in mouse vas deferens assessed as inhibition of electrically-stimulated contraction. It counts as functional, tissue-based.
Delta-type opioid receptor (Mus musculus, UniProt P32300), sequence (P32300 whole entry): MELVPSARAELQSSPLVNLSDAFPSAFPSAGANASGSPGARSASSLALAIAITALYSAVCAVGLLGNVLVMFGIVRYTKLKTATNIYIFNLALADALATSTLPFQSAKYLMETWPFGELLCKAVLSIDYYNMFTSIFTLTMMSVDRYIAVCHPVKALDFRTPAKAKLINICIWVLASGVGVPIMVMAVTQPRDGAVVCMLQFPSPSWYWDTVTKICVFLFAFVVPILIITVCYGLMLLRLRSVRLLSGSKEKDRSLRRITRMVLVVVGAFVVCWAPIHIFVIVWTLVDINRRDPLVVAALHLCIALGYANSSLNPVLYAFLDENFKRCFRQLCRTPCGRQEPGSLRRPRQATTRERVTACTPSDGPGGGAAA
For series [6], the target named is Mu-type opioid receptor (Cavia porcellus) (UniProt P97266). Kind of series: Antagonist activity at mu opioid receptor in guinea pig ileum assessed as effect on electrically-stimulated contraction at 1 uM. It counts as functional, tissue-based.
Mu-type opioid receptor (Cavia porcellus), sequence (P97266 whole entry): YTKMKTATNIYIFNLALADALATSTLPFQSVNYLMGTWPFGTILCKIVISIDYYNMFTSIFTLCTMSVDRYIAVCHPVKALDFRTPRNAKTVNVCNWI
Series [7] has the same target. Kind of series: Agonist activity at mu opioid receptor in guinea pig ileum assessed as inhibition of electrically-stimulated contraction at 1 uM. It counts as functional, tissue-based.
A short description of series [8]: Metabolic stability in rat plasma assessed as parent compound remaining at 37 degC after 24 hrs. As to conditions: read-out: Stability. It counts as ADME, cell-free.
The target of series [9] is T2, Mu-type opioid receptor. Put plainly: Agonist activity at rat mu opioid receptor expressed in HN9.10 cells assessed as stimulation of [35S]GTPgammaS binding. It counts as functional, cell-based. On the technique in general: GTPγS is a poorly hydrolysed GTP analogue; its binding reports G protein activation.
Series [10] deals with T1, Delta-type opioid receptor. Put plainly: Agonist activity at human delta opioid receptor expressed in HN9.10 cells assessed as stimulation of [35S]GTPgammaS binding. It counts as functional, cell-based.
Series [11] has as its target Mu-type opioid receptor (Rattus norvegicus) (UniProt P33535). Kind of series: Agonist activity at rat mu opioid receptor expressed in HN9.10 cells assessed as stimulation of [35S]GTPgammaS binding relative to untreated basal control. It counts as functional, cell-based.
The target of series [12] is Substance-P receptor (Cavia porcellus) (UniProt P30547). As to conditions: Ileum.
Substance-P receptor (Cavia porcellus), sequence (P30547 whole entry): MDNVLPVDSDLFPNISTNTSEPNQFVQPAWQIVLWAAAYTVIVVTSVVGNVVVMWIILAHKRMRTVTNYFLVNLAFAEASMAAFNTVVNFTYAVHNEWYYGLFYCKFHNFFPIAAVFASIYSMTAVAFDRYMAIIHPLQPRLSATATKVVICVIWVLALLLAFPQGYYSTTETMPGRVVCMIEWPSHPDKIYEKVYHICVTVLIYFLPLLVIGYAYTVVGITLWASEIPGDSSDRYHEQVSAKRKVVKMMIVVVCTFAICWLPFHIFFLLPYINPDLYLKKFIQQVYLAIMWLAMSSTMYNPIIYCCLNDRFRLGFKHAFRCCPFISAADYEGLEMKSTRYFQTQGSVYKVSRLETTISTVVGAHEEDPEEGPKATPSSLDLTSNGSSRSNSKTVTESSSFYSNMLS
Description: Antagonist activity at NK1 receptor in guinea pig ileum assessed as inhibition of substance P-induced muscle contraction in presence of naloxone
Series [13] can be described thus: Half life in rat plasma at 37 degC. It counts as ADME, cell-free.
Series [14] deals with T1, Delta-type opioid receptor. Put plainly: Agonist activity at human delta opioid receptor expressed in HN9.10 cells assessed as stimulation of [35S]GTPgammaS binding relative to untreated basal control. It counts as functional, cell-based.
Series [15] has as its target Substance-P receptor (Homo sapiens, UniProt P25103). Kind of series: Displacement of [3H]substance P from human NK1 receptor expressed in CHO cell membranes.

Data on five molecules can be found in ChEMBL document CHEMBL1152616, “The biological activity and metabolic stability of peptidic bifunctional compounds that are opioid receptor agonists and neurokinin-1 receptor antagonists with a cystine moiety” (Bioorg Med Chem, 2009).

pEC50, pIC50: −log10 of the molar value. Activity calls are given as the source filed them. The calls are words filed in the database; no cut-off is given here. Positions of bridges follow the written chain, without caps; N, C: chain ends. Non-standard residues stand in square brackets, D forms with d. Residues, ends and D or L forms follow the SMILES beside them. *: point of attachment. NH(3,5-(CF3)2-benzyl) = FC(F)(F)c1cc(CN*)cc(C(F)(F)F)c1; Nle = CCCC[C@H](N)C(=O)O

By pIC50 is commonly meant the negative decadic logarithm of the IC50, by convention in mol/L. As a reminder, the inhibition is the relative decrease from the control value, in per cent. Broadly, the pEC50 is the EC50 on a negative log10 scale, so that one unit is a factor of ten. For orientation: Emax means the size of the effect at its maximum, as opposed to the concentration needed. By half-life is commonly meant the time in which the quantity being followed falls by half. A high value points to slow loss.

T1 sequence (P41143 whole entry): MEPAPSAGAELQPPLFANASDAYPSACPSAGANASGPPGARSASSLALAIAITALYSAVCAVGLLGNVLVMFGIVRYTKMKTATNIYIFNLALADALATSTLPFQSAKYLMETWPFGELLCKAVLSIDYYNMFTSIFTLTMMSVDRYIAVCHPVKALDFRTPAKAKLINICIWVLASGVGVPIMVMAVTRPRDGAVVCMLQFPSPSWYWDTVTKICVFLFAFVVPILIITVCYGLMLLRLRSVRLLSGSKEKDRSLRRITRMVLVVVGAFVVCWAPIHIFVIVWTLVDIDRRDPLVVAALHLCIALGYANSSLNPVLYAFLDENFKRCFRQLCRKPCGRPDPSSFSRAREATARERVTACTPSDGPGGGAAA
Substance-P receptor (Rattus norvegicus, UniProt P14600), sequence (P14600 whole entry): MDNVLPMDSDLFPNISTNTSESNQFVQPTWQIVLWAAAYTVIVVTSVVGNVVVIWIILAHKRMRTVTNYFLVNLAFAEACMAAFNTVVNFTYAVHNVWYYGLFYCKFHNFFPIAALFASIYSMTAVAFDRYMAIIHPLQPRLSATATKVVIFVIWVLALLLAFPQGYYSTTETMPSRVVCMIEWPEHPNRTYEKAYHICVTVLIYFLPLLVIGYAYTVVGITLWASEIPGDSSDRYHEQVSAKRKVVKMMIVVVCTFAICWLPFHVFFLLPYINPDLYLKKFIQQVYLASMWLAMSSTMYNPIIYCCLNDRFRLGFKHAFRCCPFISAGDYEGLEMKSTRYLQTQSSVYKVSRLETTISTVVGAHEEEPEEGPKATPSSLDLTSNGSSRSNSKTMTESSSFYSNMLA
Substance-P receptor (Homo sapiens, UniProt P25103), sequence (P25103 whole entry): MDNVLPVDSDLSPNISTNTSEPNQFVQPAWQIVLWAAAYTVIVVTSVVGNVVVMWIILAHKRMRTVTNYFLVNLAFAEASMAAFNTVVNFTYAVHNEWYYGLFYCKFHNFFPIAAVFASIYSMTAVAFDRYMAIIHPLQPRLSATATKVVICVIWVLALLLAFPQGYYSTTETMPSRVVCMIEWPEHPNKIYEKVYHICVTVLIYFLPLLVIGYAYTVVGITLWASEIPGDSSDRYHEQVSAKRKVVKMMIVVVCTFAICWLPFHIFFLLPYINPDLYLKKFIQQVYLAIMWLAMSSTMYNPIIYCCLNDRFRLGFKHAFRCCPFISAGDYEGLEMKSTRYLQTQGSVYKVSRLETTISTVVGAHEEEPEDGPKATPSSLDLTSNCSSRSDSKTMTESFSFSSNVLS
Mu-type opioid receptor (Rattus norvegicus), sequence (P33535 whole entry): as the sequence (P33535 whole entry) above
Mu-type opioid receptor (Cavia porcellus, UniProt P97266), sequence (P97266 whole entry): as the sequence (P97266 whole entry) above

On to `CC(C)C[C@H](NC(=O)[C@@H]1CCCN1C(=O)[C@H]1CSSC[C@@H](NC(=O)[C@@H](N)Cc2ccc(O)cc2)C(=O)NCC(=O)N[C@@H](Cc2ccccc2)C(=O)N1)C(=O)N[C@@H](Cc1c[nH]c2ccccc12)C(=O)NCc1cc(C(F)(F)F)cc(C(F)(F)F)c1`, for which the results for the pIC50 (on Substance-P receptor [1]; in [2]; on Mu-type opioid receptor [3]) were 6.86, 7.81 and 6.94, respectively.

In the case of `CSCC[C@H](NC(=O)[C@H](Cc1ccccc1)NC(=O)CNC(=O)[C@@H](C)NC(=O)[C@@H](N)Cc1ccc(O)cc1)C(N)=O`, the pIC50 at Mu-type opioid receptor [4] is 7.35; in series [5] it was 7.44.

In the case of `CC(C)C[C@H](NC(=O)[C@@H]1CCCN1C(=O)[C@@H]1CSSC[C@@H](NC(=O)[C@@H](N)Cc2ccc(O)cc2)C(=O)NCC(=O)N[C@@H](Cc2ccccc2)C(=O)N1)C(=O)N[C@@H](Cc1c[nH]c2ccccc12)C(=O)NCc1cc(C(F)(F)F)cc(C(F)(F)F)c1`, the pIC50 at Substance-P receptor [1] was 5.75; in [2], 7.65; on Mu-type opioid receptor [3] it was 6.37. In [6], the result was Active. Also, the inhibition in [7] worked out at 10%.

For `CCCC[C@@H]1NC(=O)[C@H](Cc2ccccc2)NC(=O)CNC(=O)[C@H](NC(=O)[C@@H](N)Cc2ccc(O)cc2)CSSC[C@H](C(=O)N[C@@H](Cc2c[nH]c3ccccc23)C(=O)NCc2cc(C(F)(F)F)cc(C(F)(F)F)c2)NC(=O)[C@@H]2CCCN2C1=O` (H-Y[dC]GF[Nle]P[dC]W-{NH(3,5-(CF3)2-benzyl)}; disulfide 2-7), the pIC50 on Substance-P receptor [1] was 7.65; in [2] it was 6.93; on Substance-P receptor [15], 9.31; at Mu-type opioid receptor [3], 6.50. In addition, in series [8], the remaining at 24 h is 70%. For the same molecule, the pEC50 is 7.66 on Mu-type opioid receptor [9] and 7.89 in [10] (read-out: EC50). Further, the outcome in [6] was Active. In addition, the Emax was determined as 9% in series [11] and 110% in series [14]. Besides, the inhibition in series [7] worked out at 3%. Moreover, the Ke in series [12] is 12 nM. Also, the half-life in [13] is greater than 6 h.

For `CCCC[C@@H]1NC(=O)[C@H](Cc2ccccc2)NC(=O)CNC(=O)[C@H](NC(=O)[C@@H](N)Cc2ccc(O)cc2)CSSC[C@@H](C(=O)N[C@@H](Cc2c[nH]c3ccccc23)C(=O)NCc2cc(C(F)(F)F)cc(C(F)(F)F)c2)NC(=O)[C@@H]2CCCN2C1=O` (H-Y[dC]GF[Nle]PCW-{NH(3,5-(CF3)2-benzyl)}; disulfide 2-7), the negative-log IC50 (pIC50) is 7.02 on Substance-P receptor [1]; 8.57 in [2]; 6.00 on Mu-type opioid receptor [4]; 9.73 at Substance-P receptor [15]; 6.78 at Mu-type opioid receptor [3]. Moreover, on Mu-type opioid receptor [9], the pEC50 was 7.44. Besides, in series [10] (read-out: pEC50 (converted)), the EC50 was 0.0174 nM. Further, the results for the Emax in series [11] and in series [14] were 36% and 11%, respectively. The molecule further came in with a Ke in series [12] of 2.2 nM. In addition, in [13], the half-life is greater than 6 h.
